# Experimental data published in ChEMBL document CHEMBL1201862, “PubChem BioAssay data set” (2004).
#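 In this assay, cells in 96-well plates receive the compound at five concentrations for 48 hours. Endpoints are linearly interpolated between the surrounding concentrations. Here, GI50 denotes the concentration required for 50% inhibition of growth.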 Active and inactive are the calls of the source. No stated cut-off is given here; in the data, active = GI50 up to about 1.1 µM and inactive = higher.
# Experiments:
# Assay in all cases: DTP human tumour cell line panel, 48 h
# MOLT-4 = system: MOLT-4
# OVCAR-8 = system: OVCAR-8
# SK-MEL-28 = system: SK-MEL-28
# HCT-116 = system: HCT-116
# OVCAR-5 = system: OVCAR-5
# HOP-92 = system: HOP-92
# SK-MEL-5 = system: SK-MEL-5
# A549 = system: A549
# DU-145 = system: DU-145
# ACHN = system: ACHN
# COLO 205 = system: COLO 205
# IGROV-1 = system: IGROV-1
# Hs-578T = system: Hs-578T
# SF-539 = system: SF-539
# OVCAR-3 = system: OVCAR-3
# DMS-114 = system: DMS-114
# MDA-MB-435 = system: MDA-MB-435
# HT-29 = system: HT-29
# T47D = system: T47D
# SNB-19 = system: SNB-19
# NCI-H460 = system: NCI-H460
# NCI-H522 = system: NCI-H522
# PC-3 = system: PC-3
# RPMI-8226 = system: RPMI-8226
# UACC-257 = system: UACC-257
# MCF7 = system: MCF7
# SNB-78 = system: SNB-78
# LXFL 529 = system: LXFL 529
# K562 = system: K562
# UACC-62 = system: UACC-62
# SN12C = system: SN12C
# OVCAR-4 = system: OVCAR-4
# HOP-62 = system: HOP-62
# NCI-H23 = system: NCI-H23
# MDA-N = system: MDA-N
# LOX IMVI = system: LOX IMVI
# XF498 = system: XF498
# HL-60 = system: HL-60
# HCT-15 = system: HCT-15
# UO-31 = system: UO-31
# SF-295 = system: SF-295
# RXF 393 = system: RXF 393
# M14 = system: M14
# M19-MEL = system: M19-MEL
# CAKI-1 = system: CAKI-1
# 786-0 = system: 786-0
# CCRF-CEM = system: CCRF-CEM
# SNB-75 = system: SNB-75
# KM12 = system: KM12
# HOP-18 = system: HOP-18
# NCI-H226 = system: NCI-H226
# U-251 = system: U-251
# A498 = system: A498
# SW-620 = system: SW-620
# RXF 631 = system: RXF 631
# DMS-273 = system: DMS-273
# HCC 2998 = system: HCC 2998
# TK-10 = system: TK-10
# SF-268 = system: SF-268
# MDA-MB-231 = system: MDA-MB-231
# Malme-3M = system: Malme-3M
# SK-OV-3 = system: SK-OV-3
# DLD-1 = system: DLD-1
# EKVX = system: EKVX
# NCI/ADR-RES = system: NCI/ADR-RES
# KM-20L2 = system: KM-20L2
# SK-MEL-2 = system: SK-MEL-2
# SR = system: SR
# BT-549 = system: BT-549
structure (smiles),measurement,setting,value
N=C(Nc1nc(-c2ccccn2)cc2ccccc12)c1ccccn1,GI50,MOLT-4,0.01 µM (active)
same,GI50,OVCAR-8,< 0.0179 µM (active)
same,GI50,SK-MEL-28,0.252 µM (active)
same,GI50,HCT-116,0.01 µM (active)
same,GI50,OVCAR-5,0.0148 µM (active)
same,GI50,HOP-92,0.0233 µM (active)
same,GI50,SK-MEL-5,0.0817 µM (active)
same,GI50,A549,0.0733 µM (active)
same,GI50,DU-145,0.0673 µM (active)
same,GI50,ACHN,< 0.0145 µM (active)
same,GI50,COLO 205,0.011 µM (active)
same,GI50,IGROV-1,0.0322 µM (active)
same,GI50,Hs-578T,1.61 µM (inactive)
same,GI50,SF-539,0.097 µM (active)
same,GI50,OVCAR-3,0.01 µM (active)
same,GI50,DMS-114,0.00108 µM (active)
same,GI50,MDA-MB-435,0.12 µM (active)
same,GI50,HT-29,0.01 µM (active)
same,GI50,T47D,0.0244 µM (active)
same,GI50,SNB-19,0.834 µM (active)
same,GI50,NCI-H460,0.0857 µM (active)
same,GI50,NCI-H522,0.0398 µM (active)
same,GI50,PC-3,< 0.0129 µM (active)
same,GI50,RPMI-8226,0.00201 µM (active)
same,GI50,UACC-257,< 0.0172 µM (active)
same,GI50,MCF7,0.0106 µM (active)
same,GI50,SNB-78,3.33 µM (inactive)
same,GI50,LXFL 529,0.00242 µM (active)
same,GI50,K562,0.0108 µM (active)
same,GI50,UACC-62,0.0336 µM (active)
same,GI50,SN12C,0.0252 µM (active)
same,GI50,OVCAR-4,< 0.0561 µM (active)
same,GI50,HOP-62,0.0789 µM (active)
same,GI50,NCI-H23,0.0156 µM (active)
same,GI50,MDA-N,0.272 µM (active)
same,GI50,LOX IMVI,0.0266 µM (active)
same,GI50,XF498,0.00407 µM (active)
same,GI50,HL-60,0.01 µM (active)
same,GI50,HCT-15,0.0149 µM
same,GI50,UO-31,0.0918 µM (active)
same,GI50,SF-295,0.326 µM (active)
same,GI50,RXF 393,0.0168 µM (active)
same,GI50,M14,0.0229 µM (active)
same,GI50,M19-MEL,0.232 µM (active)
same,GI50,CAKI-1,< 0.0123 µM (active)
same,GI50,786-0,0.0317 µM (active)
same,GI50,CCRF-CEM,0.01 µM (active)
same,GI50,SNB-75,0.361 µM (active)
same,GI50,KM12,0.049 µM (active)
same,GI50,HOP-18,0.301 µM (active)
same,GI50,NCI-H226,0.106 µM (active)
same,GI50,U-251,0.0295 µM (active)
same,GI50,A498,0.233 µM (active)
same,GI50,SW-620,0.0182 µM (active)
same,GI50,RXF 631,0.01 µM (active)
same,GI50,DMS-273,0.00512 µM (active)
same,GI50,HCC 2998,0.117 µM (active)
same,GI50,TK-10,0.249 µM (active)
same,GI50,SF-268,0.065 µM (active)
same,GI50,MDA-MB-231,< 0.0179 µM (active)
same,GI50,Malme-3M,0.157 µM (active)
same,GI50,SK-OV-3,0.0308 µM (active)
same,GI50,DLD-1,0.0019 µM (active)
same,GI50,EKVX,0.0221 µM (active)
same,GI50,NCI/ADR-RES,< 0.0185 µM (active)
Cc1cccc(C(=O)c2cccc3ccccc23)c1C(=O)O,GI50,MOLT-4,> 100 µM (inactive)
same,GI50,OVCAR-8,> 100 µM (inactive)
same,GI50,SK-MEL-28,> 100 µM (inactive)
same,GI50,HCT-116,> 100 µM (inactive)
same,GI50,OVCAR-5,> 100 µM (inactive)
same,GI50,HOP-92,> 100 µM (inactive)
same,GI50,SK-MEL-5,> 100 µM (inactive)
same,GI50,A549,> 100 µM (inactive)
same,GI50,ACHN,> 100 µM (inactive)
same,GI50,COLO 205,23.3 µM (inactive)
same,GI50,IGROV-1,> 100 µM (inactive)
same,GI50,SF-539,> 100 µM (inactive)
same,GI50,OVCAR-3,> 100 µM (inactive)
same,GI50,DMS-114,3.24 µM (inactive)
same,GI50,HT-29,> 100 µM (inactive)
same,GI50,SNB-19,> 100 µM (inactive)
same,GI50,NCI-H460,> 100 µM (inactive)
same,GI50,NCI-H522,> 100 µM (inactive)
same,GI50,RPMI-8226,> 100 µM (inactive)
same,GI50,UACC-257,> 100 µM (inactive)
same,GI50,SNB-78,> 100 µM (inactive)
same,GI50,KM-20L2,> 100 µM (inactive)
same,GI50,LXFL 529,> 100 µM (inactive)
same,GI50,K562,> 100 µM (inactive)
same,GI50,SK-MEL-2,> 100 µM (inactive)
same,GI50,UACC-62,> 100 µM (inactive)
same,GI50,SN12C,> 100 µM (inactive)
same,GI50,OVCAR-4,> 100 µM (inactive)
same,GI50,HOP-62,> 100 µM (inactive)
same,GI50,NCI-H23,> 100 µM (inactive)
same,GI50,LOX IMVI,> 100 µM (inactive)
same,GI50,XF498,> 100 µM (inactive)
same,GI50,HCT-15,> 100 µM
same,GI50,UO-31,> 100 µM (inactive)
same,GI50,SF-295,> 100 µM (inactive)
same,GI50,RXF 393,> 100 µM (inactive)
same,GI50,M14,> 100 µM (inactive)
same,GI50,M19-MEL,> 100 µM (inactive)
same,GI50,786-0,> 100 µM (inactive)
same,GI50,CCRF-CEM,> 100 µM (inactive)
same,GI50,SNB-75,> 100 µM (inactive)
same,GI50,HOP-18,50.9 µM (inactive)
same,GI50,NCI-H226,> 100 µM (inactive)
same,GI50,U-251,> 100 µM (inactive)
same,GI50,A498,> 100 µM (inactive)
same,GI50,SW-620,> 100 µM (inactive)
same,GI50,RXF 631,> 100 µM (inactive)
same,GI50,DMS-273,> 100 µM (inactive)
same,GI50,TK-10,> 100 µM (inactive)
same,GI50,SF-268,> 100 µM (inactive)
same,GI50,Malme-3M,> 100 µM (inactive)
same,GI50,SK-OV-3,39.1 µM (inactive)
same,GI50,DLD-1,> 100 µM (inactive)
same,GI50,EKVX,> 100 µM (inactive)
NC(=O)c1cccc([C@@H]2O[C@H](CO)[C@@H](O)[C@H]2O)c1,GI50,MOLT-4,1.23 µM (inactive)
same,GI50,OVCAR-8,3.79 µM (inactive)
same,GI50,SK-MEL-28,6.98 µM (inactive)
same,GI50,HCT-116,18.5 µM (inactive)
same,GI50,OVCAR-5,47.4 µM (inactive)
same,GI50,HOP-92,18.5 µM (inactive)
same,GI50,SK-MEL-5,32.2 µM (inactive)
same,GI50,A549,27.2 µM (inactive)
same,GI50,DU-145,30.6 µM (inactive)
same,GI50,ACHN,18.2 µM (inactive)
same,GI50,COLO 205,12.2 µM (inactive)
same,GI50,SR,23.7 µM (inactive)
same,GI50,IGROV-1,37.8 µM (inactive)
same,GI50,Hs-578T,10.5 µM (inactive)
same,GI50,SF-539,2.24 µM (inactive)
same,GI50,OVCAR-3,18.9 µM (inactive)
same,GI50,DMS-114,15.3 µM (inactive)
same,GI50,MDA-MB-435,> 49.2 µM (inactive)
same,GI50,HT-29,16.2 µM (inactive)
same,GI50,T47D,> 35.8 µM (inactive)
same,GI50,SNB-19,14 µM (inactive)
same,GI50,NCI-H460,48.5 µM (inactive)
same,GI50,NCI-H522,4.14 µM (inactive)
same,GI50,PC-3,30.9 µM (inactive)
same,GI50,RPMI-8226,4.42 µM (inactive)
same,GI50,UACC-257,> 100 µM (inactive)
same,GI50,MCF7,> 37.3 µM (inactive)
same,GI50,SNB-78,7.43 µM (inactive)
same,GI50,KM-20L2,7.36 µM (inactive)
same,GI50,K562,3.17 µM (inactive)
same,GI50,SK-MEL-2,> 97.1 µM (inactive)
same,GI50,UACC-62,29.1 µM (inactive)
same,GI50,SN12C,40.4 µM (inactive)
same,GI50,OVCAR-4,5.45 µM (inactive)
same,GI50,HOP-62,8.3 µM (inactive)
same,GI50,NCI-H23,10.3 µM (inactive)
same,GI50,MDA-N,24.1 µM (inactive)
same,GI50,LOX IMVI,36 µM (inactive)
same,GI50,XF498,2.05 µM (inactive)
same,GI50,HL-60,3.21 µM (inactive)
same,GI50,HCT-15,3.37 µM
same,GI50,UO-31,5.35 µM (inactive)
same,GI50,SF-295,9.06 µM (inactive)
same,GI50,RXF 393,8.89 µM (inactive)
same,GI50,M14,3.2 µM (inactive)
same,GI50,M19-MEL,21 µM (inactive)
same,GI50,CAKI-1,18.4 µM (inactive)
same,GI50,786-0,3.72 µM (inactive)
same,GI50,CCRF-CEM,1.33 µM (inactive)
same,GI50,SNB-75,4.18 µM (inactive)
same,GI50,KM12,4.09 µM (inactive)
same,GI50,HOP-18,26.1 µM (inactive)
same,GI50,NCI-H226,12.5 µM (inactive)
same,GI50,U-251,11.5 µM (inactive)
same,GI50,A498,> 100 µM (inactive)
same,GI50,SW-620,7.78 µM (inactive)
same,GI50,RXF 631,12 µM (inactive)
same,GI50,DMS-273,7.66 µM (inactive)
same,GI50,HCC 2998,29.3 µM (inactive)
same,GI50,TK-10,29.6 µM (inactive)
same,GI50,SF-268,6.81 µM (inactive)
same,GI50,MDA-MB-231,77.1 µM (inactive)
same,GI50,Malme-3M,> 100 µM (inactive)
same,GI50,SK-OV-3,7.21 µM (inactive)
same,GI50,DLD-1,5.46 µM (inactive)
same,GI50,EKVX,68.7 µM (inactive)
same,GI50,BT-549,14.5 µM (inactive)
same,GI50,NCI/ADR-RES,6.41 µM (inactive)
